Experimental data published in publication PMC8498988, “Scaffold Hybridization Strategy Leads to the Discovery of Dopamine D3 Receptor-Selective or Multitarget Bitopic Ligands Potentially Useful for Central Nervous System Disorders” (ACS Chemical Neuroscience, 2021).

Experiments:
D3R = D3R (Homo sapiens, UniProt P35462); experiment: D3 mitogenesis functional assay (CHOp-D3 cells); assay type: cell-based; parameters: expressed in transfected cells; host or cells: CHOp-D3 cells; details: for EC50 / % stimul., D3 mitogenesis assay: agonist mode; for % stimul., D3 mitogenesis assay: standard agonist quinpirole; for IC50 / % inhibition (efficacy), D3R when tested as an antagonist: antagonist mode; for IC50: inhibition of quinpirole stimulation of mitogenesis, read-out: IC50, D3R when tested as an antagonist; for % inhibition (efficacy), D3R when tested as an antagonist: standard antagonist NGB 2904; for functional behavior at D3R: in words
Method: (§1) CHOp-D2 and CHOp-D3 cells are maintained in α-MEM with 10% fetal bovine serum (FBS, Atlas Biologicals), 0.05% pen-strep, and 400 μg/mL of G418. […] The cells are incubated at 37 °C in α-MEM with 10% FBS. After 48–72 h, the cells are rinsed twice with serum-free α-MEM and incubated for 24 h at 37 °C. Serial dilutions of test compounds are made by the Biomek robotics system in serum-free α-MEM. In the functional assay for agonists, the medium is removed and replaced with 100 μL of test compound in serum-free α-MEM. In the antagonist assay, the serial dilution of the putative antagonist test compound is added in 90 μL (1.1× of final concentration) and 300 nM quinpirole (30 nM final) is added in 10 μL. After another 24 h (D2) or 16 h (D3) incubation at 37 °C, 0.25 μCi of [^3H]thymidine in αMEM supplemented with 10% FBS is added to each well, and the plates are further incubated for 2 h at 37 °C. The cells are trypsinized by addition of 10× trypsin solution (1% trypsin in calcium–magnesium-free phosphate-buffered saline), and the plates are filtered and counted as usual. Quinpirole is run each day as an internal control, and dopamine is included for comparative purposes.

human 5-HT1AR [1] = target: T1, human 5-HT1AR (Homo sapiens, UniProt P08908); experiment: Radioligand binding assay at human 5-HT1AR ([3H]8-OH-DPAT, HeLa cells); details: HeLa cells expressing h5-HT1AR, read-out: Ki ± SEM, 5-HT1AR
T1 construct: expressed in transfected cells; host or cells: HeLa
T1 sequence (P08908 1-422): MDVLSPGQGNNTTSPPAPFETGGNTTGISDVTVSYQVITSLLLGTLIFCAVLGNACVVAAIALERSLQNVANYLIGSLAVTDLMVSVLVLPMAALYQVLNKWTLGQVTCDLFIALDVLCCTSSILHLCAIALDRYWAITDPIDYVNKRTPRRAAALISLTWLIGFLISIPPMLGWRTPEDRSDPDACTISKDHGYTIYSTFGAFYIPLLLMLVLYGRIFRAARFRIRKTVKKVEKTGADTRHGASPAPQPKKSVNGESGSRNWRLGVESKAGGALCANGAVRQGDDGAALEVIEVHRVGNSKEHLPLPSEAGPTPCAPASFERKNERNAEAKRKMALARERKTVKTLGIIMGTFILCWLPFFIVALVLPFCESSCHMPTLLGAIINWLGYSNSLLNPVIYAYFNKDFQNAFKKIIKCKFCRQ
Method: A human cell line (HeLa) stably transfected with genomic clone G-21 coding for the human 5-HT1AR was used. Cells were grown as monolayers in Dulbecco’s modified Eagle’s medium supplemented with 10% fetal calf serum and gentamycin (100 μg/mL) under 5% CO2 at 37 °C. Cells were detached from the growth flask at 95% confluency by a cell scraper and were lysed in ice-cold Tris (5 mM) and EDTA buffer (5 mM, pH 7.4). Homogenates were centrifuged for 20 min at 40000g, and pellets were resuspended in a small volume of ice-cold Tris/EDTA buffer (above) and immediately frozen and stored at -70 °C until use. On the day of experiment, cell membranes (80–90 μg of protein) were resuspended in binding buffer (50 mM Tris, 2.5 mM MgCl2, and 10 mM pargyline, pH 7.4). Membranes were incubated in a final volume of 0.32 mL for 30 min at 30 °C with 1 nM [^3H]8-OH-DPAT in the absence or presence of various concentrations of competing drugs (1 pM to 1 μM); each experimental condition was performed in triplicate. Nonspecific binding was determined in the presence of 10 μM 5-HT.

human D1R = target: T2, human D1R (Homo sapiens, UniProt P21728); experiment: Radioligand binding assay at human D1R ([3H]SCH23390, mouse fibroblast LhD1 cells); details: [3H]SCH23390, mouse fibroblast cells expressing hD1R; read-out: Ki ± SEM, D1R
T2 construct: expressed in transfected cells; host or cells: mouse fibroblast cells (LhD1)
Method: Mouse fibroblast cells expressing the human D1R at high density (LhD1 cells) are used. The cells are grown to confluence in DMEM containing 10% FetalClone1 serum (FCS, HyClone), 0.05% penicillin–streptomycin (pen-strep), and 400 μg/mL of Geneticin (G418). Three confluent 150 mm plates yield enough membranes for three assay plates with ∼10–15 μg protein per well. The cells from three 150 mm plates are scraped and centrifuged at 500×g for 5 min. The pellet is overlaid with 2 mL assay buffer (50 mM Tris–HCl containing 120 mM NaCl, 5 mM KCl, 2 mM CaCl2, and 1 mM MgCl2) and frozen at −70 °C. On the day of experiment, the pellet is homogenized in 30 mL assay buffer with a polytron. Cell homogenate (100 μL) is added to wells containing 800 μL of test drug or buffer. After a 10 min preincubation, 100 μL of [^3H]SCH-23390 (0.18 nM final concentration) is added. The plates are incubated at 25 C for 60 min. The reaction is terminated by filtration using a Tomtec 96 well harvester, and the radioactivity on the filters is determined using a PerkinElmer microbeta scintillation counter. Nonspecific binding is determined with 1 μM SCH-23390.

D2R = D2R (Homo sapiens, UniProt P14416); experiment: D2 mitogenesis functional assay (CHOp-D2 cells); assay type: cell-based; parameters: expressed in transfected cells; host or cells: CHOp-D2 cells; details: for IC50 / % inhib., D2 mitogenesis assay: antagonist mode; for IC50: inhibition of quinpirole stimulation of mitogenesis; for % inhib., D2 mitogenesis assay: standard antagonist (+)-butaclamol; for functional behavior at D2R: in words
Method: as §1

human 5-HT1AR [2] = target: T1, human 5-HT1AR; experiment: 5-HT1A [35S]GTPγS binding assay (HeLa cell membranes); assay type: biochemical; details: for EC50 / % stimul., 5-HT1A [35S]GTPγS binding: agonist mode; for % stimul., 5-HT1A [35S]GTPγS binding: standard agonist serotonin; for functional behavior at 5-HT1AR: in words
Method: The effects of the various compounds tested on [^35S]GTPγS binding in HeLa cells expressing the recombinant human 5-HT1AR were evaluated according to the method of Stanton and Beer with minor modifications. The stimulation experiments are as follows: Cell membranes (50–70 μg of protein) were resuspended in buffer containing 20 mM HEPES, 3 mM MgSO4, and 120 mM NaCl (pH 7.4). […] The samples were transferred to ice, [^35S]GTPγS (200 pM) was added, and the samples were incubated for further 30 min at 30 °C. The preincubation with both agonist and antagonist, before initiating the [^35S]GTPγS binding, ensures that agonist and antagonist are at equilibrium. Nonspecific binding was determined in the presence of […]. Incubation was stopped by the addition of ice-cold HEPES buffer and rapid filtration on Unifilter B filters (PerkinElmer) using a Filtermate cell harvester (Packard). The filters were washed with ice-cold Hepes buffer, and the radioactivity retained on the filters was determined by a TopCount, PerkinElmer liquid scintillation counter at 90% efficiency.

D3R, sequence (P35462 whole entry): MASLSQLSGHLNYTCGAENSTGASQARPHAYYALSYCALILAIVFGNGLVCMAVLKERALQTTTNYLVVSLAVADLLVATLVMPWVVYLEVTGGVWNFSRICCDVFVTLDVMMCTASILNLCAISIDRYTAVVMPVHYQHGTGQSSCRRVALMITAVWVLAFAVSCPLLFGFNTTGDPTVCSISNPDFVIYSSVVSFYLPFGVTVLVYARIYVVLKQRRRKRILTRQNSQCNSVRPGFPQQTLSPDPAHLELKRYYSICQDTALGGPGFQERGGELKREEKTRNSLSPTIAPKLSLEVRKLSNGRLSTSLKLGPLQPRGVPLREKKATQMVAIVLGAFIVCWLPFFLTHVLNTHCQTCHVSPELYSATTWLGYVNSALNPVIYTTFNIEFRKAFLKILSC
D2R, sequence (P14416 whole entry): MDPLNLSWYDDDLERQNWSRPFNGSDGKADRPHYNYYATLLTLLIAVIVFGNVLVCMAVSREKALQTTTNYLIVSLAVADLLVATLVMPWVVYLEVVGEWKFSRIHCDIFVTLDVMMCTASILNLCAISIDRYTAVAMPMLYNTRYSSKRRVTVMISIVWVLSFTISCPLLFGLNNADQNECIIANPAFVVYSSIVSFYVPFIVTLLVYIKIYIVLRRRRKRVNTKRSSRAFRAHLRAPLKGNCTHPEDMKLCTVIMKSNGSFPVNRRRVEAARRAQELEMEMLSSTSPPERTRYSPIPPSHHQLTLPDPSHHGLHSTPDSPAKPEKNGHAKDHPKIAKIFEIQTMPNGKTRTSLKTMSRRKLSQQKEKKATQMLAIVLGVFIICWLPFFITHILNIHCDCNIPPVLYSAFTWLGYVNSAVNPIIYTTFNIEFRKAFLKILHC
T2 sequence (P21728 whole entry): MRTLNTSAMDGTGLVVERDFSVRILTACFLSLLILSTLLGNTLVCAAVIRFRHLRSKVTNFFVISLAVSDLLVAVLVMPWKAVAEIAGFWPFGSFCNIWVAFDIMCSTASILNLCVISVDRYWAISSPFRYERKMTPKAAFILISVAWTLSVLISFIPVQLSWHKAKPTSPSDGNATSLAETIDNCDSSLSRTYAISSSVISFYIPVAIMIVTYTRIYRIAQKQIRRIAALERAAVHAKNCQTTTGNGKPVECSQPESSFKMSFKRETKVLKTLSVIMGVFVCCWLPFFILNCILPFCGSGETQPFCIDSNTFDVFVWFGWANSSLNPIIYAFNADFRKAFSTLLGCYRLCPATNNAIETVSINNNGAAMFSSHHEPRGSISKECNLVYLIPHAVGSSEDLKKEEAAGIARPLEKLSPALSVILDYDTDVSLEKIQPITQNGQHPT

SMILES	EC50 (D3R) [nM]	% stimul., D3 mitogenesis assay (D3R) [%]	IC50 (D3R) [nM]	% inhibition (efficacy), D3R when tested as an antagonist (D3R) [%]	functional behavior at D3R (D3R)	Ki (human 5-HT1AR [1]) [nM]	Ki (human D1R) [nM]	IC50 (D2R) [nM]	% inhib., D2 mitogenesis assay (D2R)	functional behavior at D2R (D2R)	EC50 (human 5-HT1AR [2]) [nM]	% stimul., 5-HT1A [35S]GTPγS binding (human 5-HT1AR [2]) [%]	functional behavior at 5-HT1AR (human 5-HT1AR [2])
O=C(NCCCCN1CCN(c2cccc(Cl)c2Cl)CC1)C1COC(c2ccccc2)(c2ccccc2)CO1 (stereo not drawn) [compound 6, N-(4-(4-(2,3-Dichlorophenyl)piperazin-1-yl)butyl)-5,5-diphenyl-1,4-dioxane-2-carboxamide]	2.72	25.7	6.6	64.0	D3R and 5-HT2CR partial agonists with high and low potency, respectively	9.1 ± 0.97	700 ± 150	8.5	(95.2) %	efficacious D2R and 5-HT2AR antagonists with high and low potency, respectively	23.9 ± 8.8	90.8	efficacious 5-HT1AR and D4R agonists with high potency
O=C(NCCCCN1CCN(c2cccc(Cl)c2Cl)CC1)C1COCC(c2ccccc2)(c2ccccc2)O1 (stereo not drawn) [compound 3, N-(4-(4-(2,3-Dichlorophenyl)piperazin-1-yl)butyl)-6,6-diphenyl-1,4-dioxane-2-carboxamide]	9.8 ± 1.6	36	38	82.7	partial agonist	288 ± 15	442 ± 52	139	(93.5) %	weak D2R antagonist	232 ± 19	82.7	5-HT1AR full agonist
O=C(NCCCCN1CCN(c2cccc(Cl)c2Cl)CC1)C1COc2ccccc2O1 (stereo not drawn) [compound 9, N-(4-(4-(2,3-Dichlorophenyl)piperazin-1-yl)butyl)-2,3-dihydrobenzo[b][1,4]dioxine-2-carboxamide]	5 ± 1.7	34.0	40.4	64.2	D3R and 5-HT2CR partial agonists with high and low potency, respectively	23.8 ± 5.2	680 ± 160	40	(94.4) %	efficacious D2R and 5-HT2AR antagonists with high and low potency, respectively	22.7 ± 0.82	96.3	efficacious 5-HT1AR and D4R agonists with high potency
